Assays:
[1] = tested on: isolated rat lungs; assay: human neutrophil perfused isolated rat lungs given IL-8 intratracheally
Experimental: After Sprague-Dawley adult male rats (350±50 g) were anesthetized with pentobarbital (60 mg/kg i.p.), a tracheotomy cannula was placed and secured with 2-O ligature. Lungs were ventilated with a tidal volume of 3 cc at a rate of 60/min. with a gas mixture containing 5% CO2 21% O2 and 74% N2. Following midline thoracotomy, a 4-O ligature was loosely placed around the root of the pulmonary outflow tract. Heparin (200 units) was injected into the right ventricle and allowed to recirculate. A rigid cannula was placed into the right ventricle, threaded into the pulmonary outflow tract, and secured with the ligature. The left ventricle was incised and a drainage cannula was inserted and secured with a 2-O ligature. Lungs and heart were excised, placed in an isolated lung chamber, and ventilated with 2.5 cm of positive end-expiratory pressure. Lungs were perfused free of blood using Earle's Balanced Salt Solution (Sigma) containing calcium chloride (0.265 g/L), magnesium sulfate (0.09767 g/L), potassium chloride (0.4 g/L), sodium chloride (6.8 g/L), sodium phosphate monobasic (0. 122 g/L) and D-glucose (1 g/L) to which was added sodium bicarbonate (2.2 g/L.) and Ficoll-70 (Sigma)(40 g/L), and the final pH adjusted to 7.40. […] Pulmonary artery pressures were continuously monitored with a transducer and weight increases were monitored with a force transducer. […]

[2] = tested on: IFN-γ; assay: IFN-γ sandwich ELISA of BAL supernatants and plasma; type: in vivo, Balb/C mice
Experimental: This example illustrates a study of Lisofylline in a murine hemorrhage and resuscitation model. Male Balb/C mice, 8-12 weeks of age, were obtained from Harlan-Sprague Dawley (Indianapolis, Ind.). The animals were kept on a 12 hour light/dark cycle with free access to food and water. With this model, 30% of the calculated blood volume (approximately 0.55 ml for a 20 gram mouse) was withdrawn from a methoxyflurane anesthetized mouse by cardiac puncture over a 60-second period. The blood was collected into a heparinized syringe (5 units heparin), kept at 37° C. for one hour, then reinfused into the mouse through a retroorbital plexus injection. Using this method, one is able to resuscitate all hemorrhaged mice without complication. The total period of methoxyflurane anesthesia is less than 2 minutes in all cases. The mortality rate with this hemorrhage protocol is approximately 12%, with all deaths occurring over the 24 hours post hemorrhage, and most deaths occurring within the one hour post hemorrhage.
Mice were treated with 100 mg/kg Lisofylline in 0.2 ml PBS and given initially i.v., by retroorbital injection, then i.p. every 8 hours for a total of 9 doses. In hemorrhaged mice, the Lisofylline in PBS was added to the shed blood, and then given retroorbitally with the blood during the resuscitation phase. In hemorrhaged Balb/C mice (n=3), sacrificed by exsanguination 5 minutes after receiving Lisofylline with the blood used for resuscitation, serum levels of Lisofylline were 44±6 μg/ml.
Three days following hemorrhage and resuscitation or the initiation of treatment with Lisofylline therapy in normal treated animals, mice were anesthetized with methoxyflurane and sacrificed by exsanguination through cardiac puncture into a heparinized (5 U) syringe. Normal mice, not subjected to hemorrhage/resuscitation or to treatment with Lisofylline, were included. Bronchoalveolar lavage (BAL) specimens, using 1.0 ml PBS injected and aspirated three times into the trachea and lungs, were obtained. Cells contained in the BAL were collected by centrifugation of BAL specimens. […] As determined by cytology, there was less than 3% contamination of alveolar macrophages with lymphocytes, neutrophils, or other mononuclear cell populations when BAL specimens are collected in normal Balb/C mice, but approximately 11±2% of isolated cells are neutrophils in mice subjected 3 days previously to 30% blood volume hemorrhage with resuscitation one hour later. […]
TNFα and IFN-γconcentrations in BAL supernatants and plasma were determined with sandwich ELISA assays using the monoclonal antibody pairs (i.e., unbiotinylated or biotinylated) MP6-XT3 for TNFα and XMG1.2 for IFN-γ(Pharmingen San Diego, Calif.). […]

[3] = tested on: PA and DAG generation; conditions: cited from earlier work
[4] = tested on: LPAAT (lysophosphatidic acyltransferase); assay: inhibition of LPAAT activity; type: biochemical; conditions: LPAAT activated by IL-1
[5] = hemorrhaged/resuscitated mice treated for 72 hours
[6] = normal, unhemorrhaged mice treated

SMILES: C[C@@H](O)CCCCn1c(=O)c2c(ncn2C)n(C)c1=O [Lisofylline, 1-R-(5-hydroxyhexyl)-3,7-dimethylxanthine]
- Lung Weight Gain ([1]; Neutrophils + IL-8 + Lisofylline 1 μM): 0.0 ± 0.0 (3)δ g
- Lung Weight Gain ([1]; Neutrophils + IL-8 + Lisofylline 50 μM): 0.0 ± 0.0 (4)δ g
- IFN-γ levels in BAL supernatants [2, 5]: 2 ± 2 pg/mL
- IFN-γ levels in plasma [2, 5]: 173 ± 120 pg/mL
- IFN-γ content of BAL supernatants [2, 6]: 16 ± 16 pg/mL
- IFN-γ in plasma [2, 6]: 66 ± 48 pg/mL
- concentrations at which Lisofylline effectively inhibits PA synthesis [3]: 10 to 30 µM
- mode of LPAAT inhibition [4]: direct inactivator and competitive inhibitor

— patent publication US6638938B1, “Method for preventing tissue injury from hypoxia” (Cell Therapeutics, Inc., priority 1993, dated 2003)
